Values quoted from earlier work as cited in publication PMC2785207 (The Journal of Biological Chemistry, 2009).

Tests used:
CobB = details: E. coli sirtuin CobB; ref [17], [18]
Sir2 = details: reaction product; reacts with the O-alkylamidate to regenerate NAD+ and acetyl lysine; ref [14], [15]

Structure (SMILES) | ribosylation by CobB (CobB) | inhibition of the Sir2 deacetylation reaction (Sir2)
Cc1cc2nc[nH]c2cc1C [5,6-dimethylbenzimidazole] | ribosylates | –
NC(=O)c1cccnc1 [nicotinamide] | – | inhibited
